In patent US11980633B2, “Method for treating cancer using a combination of DNA-damaging agents and DNA-PK inhibitors” (Vertex Pharmaceuticals Incorporated, priority 2016, dated 2024):

Tested on: pKAP1 and pH2AX levels in DU4475 breast cancer cells
Experiment: pKAP1 and pH2AX immunoblot, Compound B-2 and doxorubicin in DU4475 breast cancer cells
Format: cell-based, human
Settings: for pH2AX level, max enhancement vs doxorubicin alone: at 12 h
Experimental: Materials and Methods. The human cancer cell lines A549 (CCL-185), DU4475 (HTB-123), MDA-MB-436 (HTB-130), and MDA-MB-468 (HTB-132) were obtained from American Type Culture Collection (ATCC; Manassas, VA). A 10 mM stock solution of Compound B-1 or Compound B-2 was prepared in DMSO and stored at −20° C. Etoposide and doxorubicin were purchased from Sigma-Aldrich (St. Louis, MO).
The A549 human lung cancer cell line was purchased from ATCC and was cultured in DMEM supplemented with 10% fetal bovine serum, 1× non-essential amino acids and 1× Penicillin/Streptomycin (complete medium). Cells were maintained at a subconfluent state by passaging every 2-3 days. Human breast cancer cells lines DU4475, MDA-MB-436, and MDA-MB-468 were purchased from ATCC and cultured in DMEM supplemented with 10% fetal bovine serum, 1× Glutamax and Penicillin/Streptomycin. Cells were maintained at a subconfluent state by passaging every 2-3 days.
Compound B-1 and Compound B-2 used in these experiments were not prepared as a co-crystals.
Breast cancer cell lines grown in 24-well (Costar, catalog #3526) or 6-well (Costar, catalog #3516) tissue culture plates to 70-80% confluence were pre-incubated with 1 μM Compound B-2 or DMSO for 15 min. Doxorubicin was added to a final concentration of either 100 nM or 500 nM from a 1000× stock prepared in DMSO. Cells were then incubated for the indicated amount of time and harvested for analysis.
Cell Lysis and Western Blot Analysis. Cells treated with Compound B-1 or Compound B-2 in combination with chemotherapeutic agents were washed once with ice-cold PBS and then dissolved in 150 μL/well 2×SDS-PAGE sample buffer, transferred to microfuge tubes, and heated in a 105° C. heat block for 5 min for immunoblotting. A 15-μL aliquot of each SDS-PAGE sample was loaded onto 12-lane 4 20% Tris-Glycine gels and the gels were run at 125v constant voltage until the dye front reached the bottom (approximately 2 h). Following electrophoresis, separated proteins in the gels were transferred to a nitrocellulose membrane. Transfer was carried out for 2 h at 1.5 A constant current in a cold room using a Hoefer transfer apparatus (Model TE42 or TE62, Hoefer Inc, Holliston, MA) according to manufacturer's instructions. Following transfer, nitrocellulose membranes were incubated with blocking buffer for 1 h at room temperature. The nitrocellulose membranes were cut and the bottom halves were incubated overnight with 2 primary antibodies, anti-pH2AX (1/1000) and anti-total H2AX (1/1000). After washing, the appropriate fluorescently labeled secondary antibodies were added to the membranes and then imaged with pH2AX on the 800 (green) channel and total H2AX on the 700 (red) channel. The top halves of the membranes were probed sequentially for pKAP1 (1/1000) on the 700 (red) channel and then probed for total KAP1 (1/1000) and GAPDH (1/2500) on the 800 (green) channel. Image acquisition was conducted using an Odyssey fluorescent imaging system (Li-Cor Biosciences; Lincoln, NE).
Compound B-2 and doxorubicin combination in breast cancer cell lines in culture. To examine the effect of DNA-PK inhibition on pKAP1 and pH2AX in vitro, DU4475 breast cancer cells were pre-incubated with 1 μM Compound B-2 for 15 min, followed by addition of 100 nM or 500 nM doxorubicin. Cells were harvested at various time points following doxorubicin addition and analyzed for levels of pKAP1 and pH2AX by immunoblotting.

[2H]c1nc(C)nc([2H])c1-c1cc(NC[C@@H](C)c2cccc3c(C(=O)NC)ccnc23)ncn1 [Compound B-2]
pKAP1 level, max enhancement vs doxorubicin alone (1 μM Compound B-2 + 100 nM doxorubicin, at 12-24 h): 37-42 fold | pH2AX level, max enhancement vs doxorubicin alone (1 μM Compound B-2 + 100 nM doxorubicin): 2 fold | pKAP1 level, max enhancement vs doxorubicin alone (1 μM Compound B-2 + 500 nM doxorubicin, at 8 h): 19 fold | pH2AX level, max enhancement vs doxorubicin alone (1 μM Compound B-2 + 500 nM doxorubicin): 1.6 fold
